Assay [1] concerns the target T1, LPA1 (Homo sapiens, UniProt Q92633).
T1 construct: expressed in transfected cells
The assay can be described thus: Ca2+ transients (agonism / inhibition of LPA response) in RH7777 cells stably expressing LPA1. Conditions: RH7777 cells expressing LPA1; for EC50: induction of Ca2+ transients, read-out: LPA1 EC50; for IC50: read-out: LPA1 IC50. The assay is classed as cell-based. Here is the method:
(§1) The culture medium (DMEM containing 10% FBS) was then replaced with modified Krebs solution (120 mM NaCl, 5 mM KCl, 0.62 mM MgSO4, 1.8 mM CaCl2, 10 mM HEPES, 6 mM glucose, pH 7.4) and the cells were serum starved for 6–8 hours (12 h for PC-3 cells). Cells were loaded with Fura-2 AM for 35 minutes in modified Krebs medium. The Fura-2 was removed before loading the plate in the FlexStation instrument by replacing the medium once again with 100 μl modified Krebs medium/well. Plates were incubated for 4 minutes in the instrument to allow for warming to 37° C. Changes in intracellular Ca^2+ concentration were monitored by measuring the ratio of emitted light intensity at 520 nm in response to excitation by 340 nm and 380 nm wavelength lights, respectively. Each well was monitored for 80–120 seconds. […] Time courses were recorded using the SoftMax Pro software (Molecular Devices, Sunnyvale, Calif.). Ca^2+ transients were quantified automatically by calculating the difference between maximum and baseline ratio values for each well.
(§2) Each FAP analog was tested for the ability to induce Ca^2+ transients in RH7777 cells transfected with LPA1-3 receptors (agonism), as well as the ability to inhibit LPAinduced Ca^2+ transients in the same cells (antagonism) (Table 3).

Assay [2] concerns the target T2, LPA2 (Homo sapiens, UniProt Q9HBW0).
T2 construct: expressed in transfected cells
The assay can be described thus: Ca2+ transients (agonism / inhibition of LPA response) in RH7777 cells stably expressing LPA2. The assay is classed as cell-based. To be noted: RH7777 cells expressing LPA2; for EC50: induction of Ca2+ transients, read-out: LPA2 EC50; for IC50: inhibition of LPA-induced Ca2+ transients, read-out: LPA2 IC50. As to the method:
as §1, §2

Assay [3] addresses T1, LPA1. To be noted: original assay, literature; read-out: reported Ki at LPA1; cited from earlier work.
Assay [4] addresses T3, LPA3 (Homo sapiens, UniProt Q9UBY5).
T3 construct: expressed in transfected cells
T3 sequence (Q9UBY5 1-353): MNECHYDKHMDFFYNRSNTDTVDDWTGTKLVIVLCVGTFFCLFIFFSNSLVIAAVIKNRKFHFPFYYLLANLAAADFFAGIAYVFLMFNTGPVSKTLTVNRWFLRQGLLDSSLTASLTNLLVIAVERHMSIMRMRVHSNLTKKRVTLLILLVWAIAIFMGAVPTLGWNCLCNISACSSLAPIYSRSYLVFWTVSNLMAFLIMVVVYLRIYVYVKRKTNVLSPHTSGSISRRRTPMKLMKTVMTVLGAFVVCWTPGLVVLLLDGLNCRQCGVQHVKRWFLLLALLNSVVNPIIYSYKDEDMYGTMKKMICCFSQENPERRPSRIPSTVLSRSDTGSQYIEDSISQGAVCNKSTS
Briefly: Ca2+ transients (agonism / inhibition of LPA response) in RH7777 cells stably expressing LPA3. It is filed as cell-based. To be noted: RH7777 cells expressing LPA3; for EC50: induction of Ca2+ transients, read-out: LPA3 EC50; for Ki / IC50: inhibition of LPA-induced Ca2+ transients; for Ki: read-out: LPA3 (Ki); for IC50: read-out: LPA3 IC50. Here is the method: as §1, §2

The target in assay [5] is T4, PPARγ (Homo sapiens, UniProt P37231).
T4 sequence (P37231 1-505): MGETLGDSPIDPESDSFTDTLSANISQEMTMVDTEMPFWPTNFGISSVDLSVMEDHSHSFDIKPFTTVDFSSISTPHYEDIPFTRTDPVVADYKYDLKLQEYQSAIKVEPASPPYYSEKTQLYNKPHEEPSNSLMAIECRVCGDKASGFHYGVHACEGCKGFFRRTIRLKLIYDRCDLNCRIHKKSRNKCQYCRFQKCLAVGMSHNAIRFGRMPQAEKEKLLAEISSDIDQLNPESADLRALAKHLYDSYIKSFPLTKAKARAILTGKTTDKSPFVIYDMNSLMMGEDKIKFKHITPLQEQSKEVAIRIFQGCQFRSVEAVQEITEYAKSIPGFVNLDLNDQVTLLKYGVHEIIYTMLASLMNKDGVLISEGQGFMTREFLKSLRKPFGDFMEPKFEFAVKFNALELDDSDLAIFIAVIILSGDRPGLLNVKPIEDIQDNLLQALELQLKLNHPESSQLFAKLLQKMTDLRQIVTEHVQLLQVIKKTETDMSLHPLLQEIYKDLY
Briefly: PPARγ activation in CV1 cells, PPRE-Acox-Rluc reporter gene assay. Conditions: 10 μM test compound, 20 h.
Experimental: Comparing the effects with the Rosiglitazone, a known PPARγ agonist, CV1 cells were treated with 1% DMSO or 10 μM of test compound dissolved in DMSO for 20 h. Luciferase and β-galactosidase activities (mean±SEM) were measured in the cell lysate (n=4). *P<0.05 and **P<0.01, significant differences over vehicle control.
The assay of PPARγ activation in CV1 cells was run as reported in Zhang et al. Briefly, CV-1 cells were plated in 96-well plates (5×10^3 cells per well) in Dulbecco's modified Eagle's medium supplemented with 10% fetal bovine serum. […] Samples were run in quadruplicate and the mean±standard errors were calculated. Data are representative of at least two independent transfections. Student's t-test was used for null hypothesis testing and P<0.05 was considered transfection, cells were treated with 1% FBS supplemented OptiMEMI (Invitrogen) containing DMSO or 10 μM test compound dissolved in DMSO for 20 h. Luciferase and β-galactosidase activities were measured with the Steady-Glo® Luciferase Assay significant (in the figures P<0.05 is denoted by * and P<0.01 is **).

The target in assay [6] is T3, LPA3. Conditions: original assay, literature; read-out: reported Ki at LPA3; cited from earlier work.
Assay [7] deals with T1, LPA1. Conditions: GTPγS loading assay, HEK293T; read-out: reported Ki at LPA1; cited from earlier work.
Assay [8] concerns PC-3 cells. Briefly: Ca2+ transients in PC-3 cells endogenously expressing LPA1-3. Conditions: inhibition of LPA-induced Ca2+ transients, PC-3 cells; for IC50: read-out: PC-3 IC50. It is filed as cell-based, human. Here is the method: as §1
We tested the FAP analogs in PC-3 cells, which unlike the transfected RH7777 cells endogenously express LPA1-3 receptors.

Assay [9] concerns the target T3, LPA3. To be noted: GTPγS loading assay, HEK293T; read-out: reported Ki at LPA3; cited from earlier work.
Assay [10] addresses T2, LPA2. To be noted: GTPγS loading assay, HEK293T; read-out: reported Ki at LPA2; cited from earlier work.
The mark [11] stands for this setting: inhibition of LPA-induced Ca2+ transients.

For orientation: Ki means the dissociation constant of the complex between target and ligand, obtained from inhibition or displacement. By EC50 is commonly meant the concentration that produces a half-maximal response. For orientation: IC50 means the midpoint of a concentration-inhibition curve.

“Also recorded” adds a separate entry of the source. Like-named read-outs stand apart in the source and are kept apart here.

T2 sequence (Q9HBW0 whole entry): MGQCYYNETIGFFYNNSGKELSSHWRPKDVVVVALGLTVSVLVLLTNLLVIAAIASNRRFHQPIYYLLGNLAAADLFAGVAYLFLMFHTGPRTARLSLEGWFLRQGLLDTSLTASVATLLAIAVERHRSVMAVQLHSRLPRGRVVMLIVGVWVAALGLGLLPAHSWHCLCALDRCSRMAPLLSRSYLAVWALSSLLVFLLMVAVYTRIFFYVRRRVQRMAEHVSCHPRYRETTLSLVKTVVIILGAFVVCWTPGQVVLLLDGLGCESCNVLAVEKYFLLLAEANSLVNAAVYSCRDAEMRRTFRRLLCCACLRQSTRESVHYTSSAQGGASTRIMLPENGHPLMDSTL
T1 sequence (Q92633 whole entry): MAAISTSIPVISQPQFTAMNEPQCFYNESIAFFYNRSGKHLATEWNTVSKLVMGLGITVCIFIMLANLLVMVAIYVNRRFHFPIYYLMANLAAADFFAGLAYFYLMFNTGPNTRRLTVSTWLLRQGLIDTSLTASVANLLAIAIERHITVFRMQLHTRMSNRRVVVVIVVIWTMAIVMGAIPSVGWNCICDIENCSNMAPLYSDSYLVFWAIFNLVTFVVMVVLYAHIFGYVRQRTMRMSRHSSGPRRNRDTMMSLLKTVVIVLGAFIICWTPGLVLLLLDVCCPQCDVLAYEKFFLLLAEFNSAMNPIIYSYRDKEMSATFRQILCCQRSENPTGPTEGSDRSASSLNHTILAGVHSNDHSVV

In the case of `CCCCCCCC(=O)OC[C@H](COP(=O)(O)OP(=O)(O)O)OC(=O)CCCCCCC` [DGPP, reference compound], the Ki is 4.3 µM in assay [1], 6.6 µM in assay [3], 0.202 µM in assay [4] and 0.106 µM in assay [6]. For the same compound, the EC50 in assay [1], in [2] and in assay [4] was over 30 µM in each case. For the same compound, the IC50 in assay [1] (setting [11]) is 5.5 µM; in assay [2], over 30 µM; in [4] it was 0.454 µM. Also, in [5], the “PPARγ activation (PPRE-Acox-Rluc reporter) in words” value (“PPARγ activation” below) is reported as “can activate PPRE-Acox-Rluc reporter”.

Consider `CCCCCCCC/C=C\CCCCCCCC(=O)N[C@@H](COP(=O)(O)O)Cc1ccc(OCc2ccccc2)cc1` [VPC12249, reference compound], for which the “effect at LPA1 in words” value in [1] (Ca2+ transients) is given as “weak inhibitor”. The EC50 in assay [1], in assay [2] and in assay [4] was over 30 µM throughout. For the same compound, the IC50 is over 10 µM in assay [1] (setting [11]), over 30 µM in [2], over 10 µM in assay [8] and 1.19 µM in assay [4]. Also, the “effect at LPA2 in words” value in assay [2] (Ca2+ transients) is recorded as “did not affect LPA signaling”. For the same compound, the figures for the Ki in assay [7], in assay [4] and in assay [9] were 0.137 µM, 0.588 µM and 0.428 µM, respectively. Besides, the “PPARγ activation” value in assay [5] is on record as “can activate PPRE-Acox-Rluc reporter; also recorded: exception”.

Consider `Cc1noc(-c2ccc(CSCCC(=O)O)cc2)c1NC(=O)OC(C)c1ccccc1Cl` (centres unmarked) [Ki16425, reference compound], for which the EC50 in [1], in assay [2] and in assay [4] was over 30 µM each time. Further, the Ki was 0.425 µM in [1] (setting [11]); 0.25 µM in [7]; 1.74 µM in assay [8]; 5.6 µM in assay [10]; 0.148 µM in assay [4]; 0.36 µM in assay [9]. Moreover, the IC50 in assay [1] (setting [11]) is 0.762 µM; in assay [2], over 30 µM; in assay [8], 3.38 µM; in [4], 0.301 µM. Besides, the “PPARγ activation” value in assay [5] is “can activate PPRE-Acox-Rluc reporter”.
